Laboratory results taken from patent US20170037028A1 (BAYER PHARMA AKTIENGESELLSCHAFT, priority 2013, published 2017).

Target: T1, GLUT1 (Homo sapiens, UniProt P11166)
T1 sequence (P11166 1-492): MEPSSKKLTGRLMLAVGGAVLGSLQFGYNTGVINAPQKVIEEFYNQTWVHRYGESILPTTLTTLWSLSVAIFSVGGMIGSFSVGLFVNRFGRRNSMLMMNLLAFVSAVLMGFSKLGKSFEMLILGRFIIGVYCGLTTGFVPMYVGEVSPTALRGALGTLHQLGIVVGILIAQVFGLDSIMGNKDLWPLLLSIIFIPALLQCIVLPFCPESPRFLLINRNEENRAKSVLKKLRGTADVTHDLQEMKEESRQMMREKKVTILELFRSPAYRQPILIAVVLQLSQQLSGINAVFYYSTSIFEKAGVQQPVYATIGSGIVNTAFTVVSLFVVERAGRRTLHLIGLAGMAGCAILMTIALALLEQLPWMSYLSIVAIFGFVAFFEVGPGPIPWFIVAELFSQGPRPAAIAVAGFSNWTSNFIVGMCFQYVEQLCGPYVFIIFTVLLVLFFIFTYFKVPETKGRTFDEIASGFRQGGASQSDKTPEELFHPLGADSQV
Experiment: Indirect measurement of GLUT1 activity by quantification of intracellular ATP levels (glucose induced ATP increase)
Assay type: cell-based
Set-up: endogenous in cells; host or cells: DLD1 or CHO-K1
Details: read-out: IC50 regarding glucose induced ATP increase (GLUT1 inhibition)
Procedure, shortened: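 DLD1 or CHO-K1 cells were starved overnight in glucose-free medium with 1% FCS, then combined with an oxidative phosphorylation inhibitor. GLUT1 activity was read as glucose-induced ATP increase, GLUT2 as fructose-induced. Intracellular ATP was quantified by CellTiter-Glo luminescence.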

| Structure (SMILES) | IC50 [nM] |
| --- | --- |
| Cc1nn(Cc2ccc(C(=O)Nc3cccnc3)cc2)c(C)c1NC(=O)c1cc(C(F)(F)F)nc2ccc(Br)cc12 [Example 1045] | 9.4 |
| Cc1nn(Cc2ccc(C(=O)NC[C@H](C)O)cc2)c(C)c1NC(=O)c1cc(C(F)(F)F)nc2ccc(Br)cc12 [Example 1046] | 9.6 |
| Cc1nn(Cc2ccc(C(=O)Nc3nccs3)cc2)c(C)c1NC(=O)c1cc(C(F)(F)F)nc2ccc(Br)cc12 [Example 1047] | 11.2 |
| Cc1nn(Cc2ccc(O)cc2)c(C)c1NC(=O)c1cc(C(F)(F)F)nc2c(Cl)cc(Cl)cc12 [Example 1048] | 11.5 |
| Cc1nn(Cc2ccc(C(=O)NCCN3CC4(CCS4(=O)=O)C3)cc2)c(C)c1NC(=O)c1cc(C(F)(F)F)nc2ccc(Br)cc12 [Example 1049] | 11.7 |
| Cc1nn(Cc2ccc(C(=O)NCCCO)cc2)c(C)c1NC(=O)c1cc(C(F)(F)F)nc2ccc(Br)cc12 [Example 1051] | 11.8 |
| COc1cc(C(=O)Nc2c(C)nn(Cc3ccc(S(C)(=O)=O)cc3)c2C)c2ccccc2n1 [Example 1052] | 13.1 |
| Cc1nn(Cc2ccc(C(=O)N[C@H]3CC[C@H](O)CC3)cc2)c(C)c1NC(=O)c1cc(C(F)(F)F)nc2ccc(Br)cc12 [Example 1053] | 13.7 |
| COCCN(CCC#N)C(=O)c1ccc(Cn2nc(C)c(NC(=O)c3cc(C(F)(F)F)nc4ccc(Br)cc34)c2C)cc1 [Example 1054] | 13.9 |
| Cc1nn(Cc2ccc(C(=O)Nc3cc[nH]n3)cc2)c(C)c1NC(=O)c1cc(C(F)(F)F)nc2ccc(Br)cc12 [Example 1055] | 14.4 |
| Cc1c(NC(=O)c2cc(C(F)(F)F)nc3ccc(Br)cc23)c(C(F)(F)F)nn1Cc1ccc(C#N)nc1 [Example 1056] | 15 |
| Cc1nn(Cc2ccc(C(=O)NCC3CCCO3)cc2)c(C)c1NC(=O)c1cc(C(F)(F)F)nc2ccc(Br)cc12 (stereo not drawn) [Example 1058] | 15.3 |
| Cc1nn(Cc2ccc(C(=O)NCC(F)(F)F)cc2)c(C)c1NC(=O)c1cc(C(F)(F)F)nc2ccc(Br)cc12 [Example 1059] | 15.6 |
| Cc1nn(Cc2ccc(C(=O)NCc3ccc(-c4nnn[nH]4)cc3)cc2)c(C)c1NC(=O)c1cc(C(F)(F)F)nc2ccc(Br)cc12 [Example 1060] | 15.8 |
| Cc1nn(Cc2ccc(C(=O)N[C@H]3CC[C@@H](O)CC3)cc2)c(C)c1NC(=O)c1cc(C(F)(F)F)nc2ccc(Br)cc12 [Example 1062] | 16.4 |
| COc1ccc(CCNC(=O)c2ccc(Cn3nc(C)c(NC(=O)c4cc(C(F)(F)F)nc5ccc(Br)cc45)c3C)cc2)cc1 [Example 1063] | 16.8 |
| Cc1nn(Cc2ccc(C(=O)Nc3ccccn3)cc2)c(C)c1NC(=O)c1cc(C(F)(F)F)nc2ccc(Br)cc12 [Example 1064] | 18.6 |
| Cc1c(NC(=O)c2cc(C(F)(F)F)nc3ccc(Br)cc23)c(C(F)(F)F)nn1Cc1ccc(C(=O)NCCO)cn1 [Example 1065] | 18.7 |
| Cc1nn(Cc2ccc(C(=O)Nc3cccc(Cl)c3)cc2)c(C)c1NC(=O)c1cc(C(F)(F)F)nc2ccc(Br)cc12 [Example 1066] | 19.1 |
| Cc1nn(Cc2ccc(C(=O)NCCC(N)=O)cc2)c(C)c1NC(=O)c1cc(C(F)(F)F)nc2ccc(Br)cc12 [Example 1067] | 19.2 |

| Structure (SMILES) | IC50 [nM] |
| --- | --- |
| Cc1nn(Cc2ccc(C(=O)NCc3ccccn3)cc2)c(C)c1NC(=O)c1cc(C(F)(F)F)nc2ccc(Br)cc12 [Example 1068] | 19.5 |
| Cc1nn(Cc2ccc(C(=O)Nc3ccc(N(C)C)cc3)cc2)c(C)c1NC(=O)c1cc(C(F)(F)F)nc2ccc(Br)cc12 [Example 1069] | 19.8 |
| CNC(=O)c1ccc(Cn2nc(C)c(NC(=O)c3cc(C(F)(F)F)nc4ccc(Br)cc34)c2C)nc1 [Example 1070] | 20.2 |
| Cc1nn(Cc2ccccc2O)c(C)c1NC(=O)c1cc(C(F)(F)F)nc2c(Cl)cc(Cl)cc12 [Example 1071] | 21 |
| Cc1nn(CC2CCN(S(C)(=O)=O)CC2)c(C)c1NC(=O)c1cc(C(F)(F)F)nc2ccc(Br)cc12 [Example 1072] | 21 |
| Cc1nn(Cc2ccc(C(=O)NCC3CC3)cn2)c(C)c1NC(=O)c1cc(C(F)(F)F)nc2ccc(Br)cc12 [Example 1073] | 21.7 |
| Cc1nn(Cc2ccncc2C#N)c(C)c1NC(=O)c1cc(C(F)(F)F)nc2ccc(Br)cc12 [Example 1074] | 22.3 |
| COc1cc(C(=O)Nc2c(C(F)(F)F)nn(Cc3ccc(C#N)cc3)c2C)c2ccccc2n1 [Example 1075] | 22.5 |
| Cc1c(NC(=O)c2cc(C(F)(F)F)nc3ccc(Br)cc23)c(C(F)(F)F)nn1Cc1ccc(C(N)=O)cn1 [Example 1076] | 22.7 |
| Cc1nn(Cc2ccc(C(=O)NCCCCCO)cc2)c(C)c1NC(=O)c1cc(C(F)(F)F)nc2ccc(Br)cc12 [Example 1077] | 23.1 |
| CNC(=O)c1ccc(Cn2nc(C(F)(F)F)c(NC(=O)c3cc(C(F)(F)F)nc4ccc(Br)cc34)c2C)nc1 [Example 1078] | 23.9 |
| Cc1nn(Cc2ccc(C(=O)NCC3CC3)cc2)c(C)c1NC(=O)c1cc(C(F)(F)F)nc2ccc(Br)cc12 [Example 1079] | 24.4 |
| Cc1nn(Cc2ccc(C(=O)NCC(F)F)cc2)c(C)c1NC(=O)c1cc(C(F)(F)F)nc2ccc(Br)cc12 [Example 1080] | 25.8 |
| Cc1nn(Cc2ccc(C(=O)N3CCC[C@@H]3CO)cc2)c(C)c1NC(=O)c1cc(C(F)(F)F)nc2ccc(Br)cc12 [Example 1081] | 26.3 |
| Cc1nn(Cc2ncccc2C#N)c(C)c1NC(=O)c1cc(C(N)=O)nc2ccccc12 [Example 1082] | 28.2 |
| Cc1nn(Cc2ccc(C(=O)NCCCCO)cc2)c(C)c1NC(=O)c1cc(C(F)(F)F)nc2ccc(Br)cc12 [Example 1083] | 29.4 |
| Cc1nn(Cc2ccc(C(=O)NCCOc3ccccc3F)cc2)c(C)c1NC(=O)c1cc(C(F)(F)F)nc2ccc(Br)cc12 [Example 1084] | 30.8 |
| Cc1nn(Cc2ccc(C(=O)NCC(C)(C)O)cc2)c(C)c1NC(=O)c1cc(C(F)(F)F)nc2ccc(Br)cc12 [Example 1085] | 31.2 |
| Cc1nn(Cc2ccc(C#N)nc2)c(C)c1NC(=O)c1cc(C(N)=O)nc2ccc(F)cc12 [Example 1086] | 31.6 |
| Cc1nn(Cc2ccc(C(=O)N3CC4(CCS4(=O)=O)C3)cc2)c(C)c1NC(=O)c1cc(C(F)(F)F)nc2ccc(Br)cc12 [Example 1087] | 32.2 |

| Structure (SMILES) | IC50 [nM] |
| --- | --- |
| Cc1nn(Cc2ccc(F)cc2)c(C)c1NC(=O)c1cc(C(F)(F)F)nc2ccc([N+](=O)[O-])cc12 [Example 1088] | 34.9 |
| COc1ccc(Cn2nc(C(F)(F)F)c(NC(=O)c3cc(OC)nc4ccccc34)c2C)cc1 [Example 1089] | 35.5 |
| Cc1nn(Cc2ccc(C(=O)NCCCn3ccnc3)cc2)c(C)c1NC(=O)c1cc(C(F)(F)F)nc2ccc(Br)cc12 [Example 1091] | 36 |
| Cc1nn(Cc2ccc(C#N)cc2)c(C)c1NC(=O)c1cc(N(C)C)nc2ccccc12 [Example 1092] | 37.9 |
| Cc1nn(Cc2ccc(C(=O)NCCO)cn2)c(C)c1NC(=O)c1cc(C(F)(F)F)nc2ccc(Br)cc12 [Example 1093] | 38.4 |
| Cc1nn(CC2CCN(S(C)(=O)=O)CC2)c(C)c1NC(=O)c1cc(C(N)=O)nc2ccccc12 [Example 1094] | 39.3 |
| Cc1nn(Cc2ccc(C(=O)NC(C)(CO)CO)cc2)c(C)c1NC(=O)c1cc(C(F)(F)F)nc2ccc(Br)cc12 [Example 1096] | 41.1 |
| C=Cc1ccc(Cn2nc(C)c(NC(=O)c3cc(C)nc4ccc(C)cc34)c2C)cc1 [Example 1097] | 41.3 |
| Cc1nn(Cc2ccc(C(=O)NCCNC(=O)C3CC3)cc2)c(C)c1NC(=O)c1cc(C(F)(F)F)nc2ccc(Br)cc12 [Example 1098] | 41.4 |
| Cc1nn(Cc2ccc(C(=O)N3CCC(CO)CC3)cc2)c(C)c1NC(=O)c1cc(C(F)(F)F)nc2ccc(Br)cc12 [Example 1099] | 41.9 |
| Cc1nn(CCc2ccc(F)cc2)c(C)c1NC(=O)c1cc(C(N)=O)nc2ccccc12 [Example 1100] | 42.1 |
| Cc1nn(Cc2ccc(C(=O)N[C@@H](C)CO)cc2)c(C)c1NC(=O)c1cc(C(F)(F)F)nc2ccc(Br)cc12 [Example 1101] | 42.8 |
| COc1cc(C(=O)Nc2c(C)nn(Cc3ncccc3C#N)c2C)c2ccccc2n1 [Example 1102] | 43.5 |
| Cc1nn(CC2COc3ccccc3O2)c(C)c1NC(=O)c1cc(C(N)=O)nc2ccccc12 (stereo not drawn) [Example 1103] | 44.7 |
| COC(=O)[C@@H](NC(=O)c1ccc(Cn2nc(C)c(NC(=O)c3cc(C(F)(F)F)nc4ccc(Br)cc34)c2C)cc1)[C@@H](C)O [Example 1104] | 47.8 |
| Cc1c(NC(=O)c2cc(C(F)(F)F)nc3ccc(Br)cc23)c(C(F)(F)F)nn1Cc1ccncc1C#N [Example 1105] | 48.2 |
| Cc1nn(Cc2ccc(C(=O)NCCn3cccn3)cc2)c(C)c1NC(=O)c1cc(C(F)(F)F)nc2ccc(Br)cc12 [Example 1106] | 49.6 |
| Cc1nn(Cc2ccc(C(=O)NCCCC(C)(C)CO)cc2)c(C)c1NC(=O)c1cc(C(F)(F)F)nc2ccc(Br)cc12 [Example 1107] | 52.2 |
| Cc1ccc(CNC(=O)c2ccc(Cn3nc(C)c(NC(=O)c4cc(C(F)(F)F)nc5ccc(Br)cc45)c3C)cc2)cc1 [Example 1108] | 52.5 |
| COc1ccc(CCCn2nc(C)c(NC(=O)c3cc(OC)nc4ccccc34)c2C)cc1 [Example 1109] | 54.2 |
